Test results taken from patent US7795311B2, “Methods and compositions for the management of soil-borne fungal diseases” (Pittsburg State University, priority 2007, dated 2010).
Where “and” joins values, the source holds several entries; their conditions need not be identical. Equal entries are not always repeated.

Key:
[1] = test system: soil-borne fungal diseases; assay: 1999 and 2000 foliar treatment field trial: viability and mortality data; format: in vivo, soybean; details: 1999 foliar treatment
Method: (§1) Foliar treatments were prepared on site. R1 and R4 Foliar Carbenoxolone 1000μ/mL treatments were prepared by adding 3.785 g Carbenoxolone to 1 gallon of water and mixed until dissolved. The mixture was then sprayed directly onto foliage using specialized CO2 pressurized aerosol spray equipment set at a spray rate of 1 gallon/100 ft for four (4), twenty-five (25) foot rows and two (2) rows wide.
FIGS. 1 and 3 depict the 1999 and 2000 Foliar Treatment Viability and Mortality Data. In 1999, the Carbenoxolone concentration was varied between 125 and 1000 μg/ml diluted in one gallon of water. The treatment composition was applied to the canopy of plants at various developmental stages (V-2, R-1 and R-6). The foliar application was accomplished using the pressurized boom-spray unit attached to a tractor at reproductive stage V-2 or R-1, or by a backpack spray unit at reproductive stage R-6. The mortality and viability data were collected at developmental stage R-8, usually around week eleven (11) or twelve (12) in the plant's lifecycle. Also shown in FIGS. 1 and 3, the percent mortalities were calculated based on the number of plants that died at twelve (12) weeks of growth as compared to the total number of seeds planted per treatment. The viability percentages as shown in FIGS. 1 and 3 were calculated from the total number of seeds planted per treatment, as compared to the viability data taken at three (3) weeks of growth. The seed germination rate was greater than 99% and was determined prior to planting. […] This appears unchanged from the untreated control, which had similar percentages. […] The Carbenoxolone treatment solution having 125 μg/ml has a mortality percentage of approximately 10.4% compared to a mortality percentage of an uncontrolled of 20%.
The […] foliar treatment using Cabenoxolone also had similar results as in 1999. The mortality percentage of plants treated with a Carbenoxolone solution decreased when compared to an untreated control.

[2] = test system: soil-borne fungal diseases; assay: 1999/2000 foliar application: mean disease rating and percent mortality; format: in vivo, soybean; details: dead plants / germinated plants, week 11
Source text: Beginning at developmental stage V1, a visual disease rating was employed to determine the overall visual health of the plant based on foliar, pod and stem disease. The foliar disease rating system was based from the Soybean Diseases Atlas by the Southern Soybean Disease Workers (W. J. Walla, ed. 1979, Texas A&M University). A 1-5 rating system was utilized, wherein 1=0%, 2=25%, 3=50%, 4=75%, 5=100% based on leaf area affected by disease symptoms.
FIG. 2 illustrates the 1999 Mean Disease Rating for Each Foliar Application, Percent Mortality and the Statistical Significance as Measured by the Student-Newman-Keuls (“SNK”) Analysis. The disease ratings as shown in FIGS. 2 and 4 are an objective number rating assigned as a percentage of a plot infected having a rating scale of 1=0%, 2=25%, 3=50%, 4=75% and 5=100%. The SNK data comprising letters which are different are statistically significant from other letter assigned data sets, which allows the single year data to show how weather influences the outcome of the treatment. […] The mortality count was taken at week eleven (11) in the 1999 and 2000 growing seasons. As previously stated, the SNK statistical analysis illustrate the statistical significance of the data, wherein means with the same letter are not statistically different. […] Even lower, 1000 μg/ml of Carbenoxolone solution a mortality rate of 22%.

[3] = test system: Pythium, Phytophthora, Phomopsis and Rhizoctonia fungal pathogens; assay: Field trial 2003-2005: soybean pre-emergence mortality by seed/foliar treatment; format: in vivo; set-up: pre-emergence mortality, average non-emergent seeds: concentration or dose not given beside the values
Source text: (§2) Test plots were organized into randomized block design consisting of fifteen (15) total treatments. Treatments included either a control group, a seed treatment, foliar treatment, or a combination seed and foliar treatment. Each treatment consisted of four (4), twenty-five (25) foot rows in each test plot. The fifteen (15) treatment blocks were planted in quadruplicate for a total of sixty (60) test plots. The test plots were labeled with numerical identification markers which represent the treatment, plot, and replication number. No samples were taken from the two (2) interior rows of each plot so that they could be used for counting plant mortality and harvested for seed yields. The two (2) outside rows were used to sample plants.
(§3) Seeds were treated with stock solutions of the following treatments. Carbenoxolone disodium salt 0, 125, 250, 500 and 1000 μg/L High Grade was utilized for management of Pythium, Phytophthora, Phomopsis and Rhizoctonia fungal pathogens. Gustafson's Magnacoat® (Gustafson, LLC, Plans, Tex.) was used as a seed-coating polymer in conjunction with the other treatment and as a control treatment. For example, stock solutions were prepared in 500 mL beakers as follows: […] High Grade was prepared by adding 0.105 g of 99% pure Carbenoxolone to 65 mL deionized water and mixing using a spatula until completely dissolved, then adding 35 mL Magnacoat® and 5 mL green Pro-lzed® colorant and mixing until homogenous for a total of 105 mL.
(§4) Seeds for each row were treated separately with compounds. A 2.1 mL sample was taken from the stock solution via pipette and placed in a 200 mL glass beaker. A single row seed sample was added to the beaker and the seeds were mixed with a glass stir rod until the seeds were completely covered. The samples were then spread onto a wax sheet and allowed to dry for one (1) to two (2) hours. Each treated seed sample was placed in a labeled twenty pound (20 lb), 4×6 inch manila coin envelope.
as §1
(§5) Germination data was taken at V1 by counting the emergent plants in the two (2) inner yield rows. Plant counts were used to compare with number of seeds planted to determine pre-emergence mortality due to soil-borne early season disease pressure. At the end of the growing season at developmental stage […] when plants were mature, but before full senescence, dead plants were counted. Plant counts were used to determine mortality data for the season caused by overall disease pressure.
In the yield rows, two-hundred and forty (240) seeds were planted per row in the yield rows at the beginning of the growing season, flanked by two (2) rows (two-hundred and forty (240) seeds in each row) for plant sampling. Rows were end trimmed to final twenty-five (25) foot rows with two-hundred (200) seed per row and eight (8) seeds per foot. Mortality data was determined only from the interior yield rows. An average of these pre-emergence mortality totals, (four-hundred (400) seeds in two (2) rows) for all four (4) repetitions was taken to represent pre-emergence mortality. Pre-emergence mortality averages for each treatment with calculated standard deviations are compared in FIG. 5. Pre-emergence mortality indicates the number of plants that died before emergence. Treatments were either untreated control seed or seeds treated with the polymer in combination with Carbenoxolone. Foliar treatments indicate that the same compound used as a seed treatment was then applied as a foliar spray at a set plant development stage (R1 or R4). […]

[4] = test system: Pythium, Phytophthora, Phomopsis and Rhizoctonia fungal pathogens; assay: Field trial 2003-2005: soybean post-emergence mortality by seed/foliar treatment; format: in vivo; set-up: concentration or dose not given beside the values
Source text: as §2, §3, §4, §1, §5
Post-emergence mortality was obtained by totaling the number of dead plants at the end of the growing season as compared to the number of plants that successfully emerged. Plant mortality counts were taken at developmental stage R8, within the two (2) yield rows and an average of these mortality totals was obtained for all four (4) repetitions. Post-emergence mortality averages and standard deviations for all four (4) repetitions and treatments over three (3) years of testing are compared in FIG. 6. Post-emergence mortality indicates the number of plants that died within the growing season after emergence. Similar to FIG. 5, treatments were either untreated control seed or seeds treated with the polymer in combination with Carbenoxolone. Foliar treatments indicate that the same compound used as a seed treatment was then applied as a foliar spray at a set plant development stage (R1 or R4). The percentage is based on the average of V1 emerged viable seedlings counted compared to the R8 viable plants counted.

[5] = test system: Pythium, Phytophthora, Phomopsis and Rhizoctonia fungal pathogens; assay: Field trial 2003-2005: soybean viability at R8 by seed/foliar treatment; format: in vivo; set-up: viability average: concentration or dose not given beside the values
Source text: as §2, §3, §4, §1
The viability data was obtained by totaling the number of healthy plants within the two (2) yield rows at the end of the growing season when plants reached developmental stage R8 and these totals were averaged and standard deviations calculated for all four (4) repetitions per treatment. […] Viability averages of all treatment repetitions for a growing year, for three (3) years of field-testing are compared in FIG. 7. Viability indicates the number of healthy plants at the end of the growing season. Similar to FIGS. 5 and 6, treatments were either untreated control seed or seeds treated with the polymer in combination with Carbenoxolone. Foliar treatments indicate that the same compound used as a seed treatment was then applied as a foliar spray at a set plant development stage (R1 or R4). Percentage is based on the average number of viable plants counted at R8.

[6] = Field trial 2003-2005: seed yield; format: in vivo, soybean
Source text: At the end of the growing seasons, marked by plant senescence, the two (2) interior yield rows were harvested using a Massey-Ferguson two-row experimental test, combined with an onboard computer processor for determining seed weight, seed moisture and collection of samples. Yield data included seed moisture and seed weight, which were used to determine the overall yield for each test plot.
Yield data was obtained from the two (2) yield rows of twenty-five (25) feet using a conversion equation which utilized the fraction of acreage predetermined test weight and adjusted moisture of the seeds harvested. Yield values represent bushels per acre adjusted for moisture and test weight. […] Multiple comparisons were tested at α=0.1. Again as with previous Figures, treatments were either untreated control seed or seeds treated with a seed coating polymer in combination with Carbenoxolone. Foliar treatments indicate that the same compound used as a seed treatment was then applied as a foliar spray at a set plant development stage (R1 or R4).

[7] = seed combined with R1 foliar, 2003
[8] = seed combined with R1 foliar, 2004
[9] = seed combined with R1 foliar, 2005
[10] = seed combined with R4 foliar, 2003
[11] = seed combined with R4 foliar, 2004
[12] = seed combined with R4 foliar, 2005
[13] = seed treatment (with polymer), 2003
[14] = seed treatment (with polymer), 2004
[15] = seed treatment (with polymer), 2005
[16] = seed treatment combined with R1 foliar, three years of testing

CC1(C)[C@@H](OC(=O)CCC(=O)O)CC[C@]2(C)[C@H]3C(=O)C=C4[C@@H]5C[C@@](C)(C(=O)O)CC[C@]5(C)CC[C@@]4(C)[C@]3(C)CC[C@@H]12 [Carbenoxolone, 3β-hydroxy-11-oxoolean-12-en-30-oic acid 3-hemisuccinate disodium]
increase of viability percentage from the untreated control ([1]; 125 μg/ml): approximately 10% | mortality percentage ([1]; 125 μg/ml): approximately 10.4% | mortality rate ([1]; 1000 μg/ml, plants dead at 12 weeks vs seeds planted): approximately 20% | viability rate ([1]; 1000 μg/ml, viability at 3 weeks vs seeds planted): approximately 80% | mortality rate ([2]; foliar 500 μg/ml): 26% | mortality rate ([2]; foliar 1000 μg/ml): 22% | pre-emergence mortality, average non-emergent seeds ([3]; R1 foliar only (untreated seed), 2003): 27.50% | pre-emergence mortality, average non-emergent seeds ([3]; R1 foliar only (untreated seed), 2004): 41.25% | pre-emergence mortality, average non-emergent seeds ([3]; R1 foliar only (untreated seed), 2005): 27.08% | pre-emergence mortality, average non-emergent seeds ([3]; R4 foliar only (untreated seed), 2003): 35.41% | pre-emergence mortality, average non-emergent seeds ([3]; R4 foliar only (untreated seed), 2004): 43.75% | pre-emergence mortality, average non-emergent seeds ([3]; R4 foliar only (untreated seed), 2005): 27.91% | pre-emergence mortality, average non-emergent seeds [3, 7]: 30.0% | pre-emergence mortality, average non-emergent seeds [3, 8]: 41.24% | pre-emergence mortality, average non-emergent seeds [3, 9]: 30.0% | pre-emergence mortality, average non-emergent seeds [3, 10]: 36.66% | pre-emergence mortality, average non-emergent seeds [3, 11]: 42.5% | pre-emergence mortality, average non-emergent seeds [3, 12]: 28.75% | pre-emergence mortality, average non-emergent seeds [3, 13]: 26.25% and 26% | average germination higher in 2003 compared to 2004 ([3]; seed treatment (with polymer), 2003 vs 2004): 17% | pre-emergence mortality, average non-emergent seeds [3, 14]: 43.33% and 43% | pre-emergence mortality, average non-emergent seeds [3, 15]: 29.16% and 29% | post-emergence mortality average ([4]; R1 foliar only, 2003): 5.0% | post-emergence mortality average ([4]; R1 foliar only, 2004): 1.6% | post-emergence mortality average ([4]; R1 foliar only, 2005): 3.33% | post-emergence mortality average ([4]; R4 foliar only, 2003): 6.25% | post-emergence mortality average ([4]; R4 foliar only, 2004): 1.6% | post-emergence mortality average ([4]; R4 foliar only, 2005): 3.33% | post-emergence mortality average [4, 7]: 5.41% and 5% | post-emergence mortality average [4, 9]: 3.33% | post-emergence mortality average [4, 11]: 2.08% | post-emergence mortality average [4, 12]: 2.5% and 2% | post-emergence mortality average [4, 13]: 5.0% | post-emergence mortality average [4, 14]: 2.08% | post-emergence mortality average [4, 15]: 2.5% | viability average ([5]; R1 foliar only, 2003): 77.08% | viability average ([5]; R1 foliar only, 2004): 63.33% | viability average ([5]; R1 foliar only, 2005): 77.5% | viability average ([5]; R4 foliar only, 2003): 69.16% | viability average ([5]; R4 foliar only, 2004): 60.83% | viability average ([5]; R4 foliar only, 2005): 76.66% | Dunnett's t Test analysis of viability data compared to the untreated control ([5]; seed combined with R1 foliar): statistically significant difference | viability average [5, 7]: 74.58% | viability average [5, 8]: 63.75% | viability average [5, 9]: 74.58% | viability average [5, 10]: 69.58% | viability average [5, 11]: 62.08% | viability average [5, 12]: 75.83% | viability average ([5]; seed treatment (with polymer), 2003, plants at R8): 78.39% | viability average ([5]; seed treatment (with polymer), 2004, plants at R8): 61.66% | viability average ([5]; seed treatment (with polymer), 2005, plants at R8): 75.41% | improvement of the average yield ([6]; 2003-2005, not statistically significant): approximately 1.5 bushels/acre | increase of yield [6, 16]: 1.5 bushels per acre | increase of yield compared to other treatments [6, 16]: 6.9%
